We go through five compounds from US6362208B1, “Anilide compounds and drugs containing the same” (Kowa Company, Ltd., priority 1997, dated 2002).

For one data set, the system named is ACAT in HepG2 cells. Kind of data set: ACAT inhibitory action in HepG2 cells, cholesterol ester formation. In kind it is cell-based. The note with it: 10 μg/ml 25-OH cholesterol, 18-hr culturing, cholesterol ester per protein, read-out: IC50 (μM) of HepG2-derived enzyme. The procedure: (§1) J774 cells or HepG2 cells were inoculated on a 24-well plate; J774 cells and HepG2 cells were cultured in DMEM and MEM culture broths (each of the broths containing 10% calf fetus serum), respectively, in a 5% CO2 incubator at 37° C. for 24 hours. […] After discarding the culture media, the resulting cultures were rinsed twice with PBS and extracted with 1.5 ml of hexane:isopropanol (3:2), for concentration and drying. The extracts were dissolved in isopropanol containing 0.2 ml of 10% Triton X-100, to assay total cholesterol (TC) and free cholesterol (FC) by using Cholesterol E Test WAKO (manufactured by Wako Pure Chemicals, Co.) and Free Cholesterol E Test Wako (manufactured by Wako Pure Chemicals, Co.). […] Based on the difference between TC and FC, cholesterol ester was calculated per protein, to determine IC50, compared with the calculated control IC50 value.

Another data set deals with T1, ACAT in J774 cells (Mus musculus, UniProt Q61263).
T1 construct: J774 cells or HepG2 cells were inoculated on a 24-well plate; endogenous in cells; host or cells: J774 cells
T1 sequence (Q61263 1-540): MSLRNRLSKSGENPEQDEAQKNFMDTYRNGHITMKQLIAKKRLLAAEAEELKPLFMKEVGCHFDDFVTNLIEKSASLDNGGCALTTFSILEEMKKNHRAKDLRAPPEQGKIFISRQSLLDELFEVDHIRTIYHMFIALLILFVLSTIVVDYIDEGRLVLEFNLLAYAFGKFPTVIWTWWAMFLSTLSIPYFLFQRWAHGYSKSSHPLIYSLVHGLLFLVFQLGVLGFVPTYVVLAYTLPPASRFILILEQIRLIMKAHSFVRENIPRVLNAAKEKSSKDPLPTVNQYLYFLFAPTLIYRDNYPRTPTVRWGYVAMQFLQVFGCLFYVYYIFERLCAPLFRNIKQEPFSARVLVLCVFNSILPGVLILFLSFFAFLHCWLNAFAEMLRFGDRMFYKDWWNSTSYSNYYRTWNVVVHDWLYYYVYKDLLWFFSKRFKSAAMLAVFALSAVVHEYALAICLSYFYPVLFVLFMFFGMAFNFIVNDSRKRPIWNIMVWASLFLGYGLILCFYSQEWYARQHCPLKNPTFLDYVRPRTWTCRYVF
The experiment in a line: ACAT inhibitory action (anti-foaming action) in J774 cells, cholesterol ester formation. In kind it is cell-based. The settings on record: for IC50: J774 cells, 10 μg/ml 25-OH cholesterol, 18-hr culturing, cholesterol ester per protein, read-out: IC50 (μM) of J774-derived enzyme; for IC50 (HepG2)/IC50 (J774): ratio HepG2 / J774. The procedure: as §1

For data set [1], the target named is T2, ACAT, small intestine-derived enzyme (Oryctolagus cuniculus, UniProt G1SFD9).
T2 sequence (G1SFD9 1-524): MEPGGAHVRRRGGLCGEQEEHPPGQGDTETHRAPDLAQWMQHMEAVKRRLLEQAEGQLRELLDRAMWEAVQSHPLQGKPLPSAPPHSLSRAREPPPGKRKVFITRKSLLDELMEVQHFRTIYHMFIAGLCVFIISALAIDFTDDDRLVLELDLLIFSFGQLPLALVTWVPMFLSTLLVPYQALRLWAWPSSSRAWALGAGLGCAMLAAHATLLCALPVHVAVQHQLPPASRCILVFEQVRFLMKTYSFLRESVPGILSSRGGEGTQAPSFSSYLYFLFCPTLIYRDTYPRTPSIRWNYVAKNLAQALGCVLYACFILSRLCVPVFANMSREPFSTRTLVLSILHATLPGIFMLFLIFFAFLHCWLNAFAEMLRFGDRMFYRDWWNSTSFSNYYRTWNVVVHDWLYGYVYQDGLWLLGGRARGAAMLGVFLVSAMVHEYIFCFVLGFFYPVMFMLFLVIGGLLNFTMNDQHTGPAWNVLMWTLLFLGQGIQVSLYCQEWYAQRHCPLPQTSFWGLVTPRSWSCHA
The experiment in a line: ACAT inhibitory action, small intestine-derived enzyme. In kind it is biochemical. The settings on record: rabbit small intestine enzyme solution, 14C-Oleoyl-CoA, 37° C., 3 minutes. The method, then: (§2) In a conventional manner, microsome was prepared from the thoracic aorta of a rabbit fed with a 1% cholesterol diet for 8 weeks, which was then suspended in 0.15 M phosphate buffer, pH 7.4, to prepare an enzyme solution. An enzyme solution was prepared from a rabbit small intestine on normal diet, which was defined as an enzyme solution derived from small intestine.
(§3) 10 μl of an enzyme solution was added to the resulting solution for reaction at 37° C. for […] (small intestine-derived enzyme solution was subjected to reaction for 3 minutes). Subsequently, the reaction was terminated by adding 3 ml of chloroform/methanol (2/1) and 0.5 ml of 0.04 N hydrochloric acid to the reaction solution, to extract lipid. The solvent layer was concentrated and dried, which was then dissolved in hexane and spotted on a TLC plate (manufactured by Merck, Co.). The plate was eluted with hexane:ether:acetic acid (75:25:1). The radioactivity of the resulting cholesterol ester fraction was assayed by BAS 2000 (manufactured by Fuji Photo Film, Co., Ltd.). Compared with the radioactivity of a control prepared by single addition of DMSO, IC50 was determined.

In data set [2] the target is ACAT, vascular wall-derived enzyme (Oryctolagus cuniculus, UniProt G1SUQ0). Kind of data set: ACAT inhibitory action, vascular wall-derived enzyme (microsome from thoracic aorta of cholesterol-fed rabbit). In kind it is biochemical. The note with it: 14C-Oleoyl-CoA, 37° C. The method, then:
as §2, §3

Chain of ACAT, vascular wall-derived enzyme (G1SUQ0 entry or part of it): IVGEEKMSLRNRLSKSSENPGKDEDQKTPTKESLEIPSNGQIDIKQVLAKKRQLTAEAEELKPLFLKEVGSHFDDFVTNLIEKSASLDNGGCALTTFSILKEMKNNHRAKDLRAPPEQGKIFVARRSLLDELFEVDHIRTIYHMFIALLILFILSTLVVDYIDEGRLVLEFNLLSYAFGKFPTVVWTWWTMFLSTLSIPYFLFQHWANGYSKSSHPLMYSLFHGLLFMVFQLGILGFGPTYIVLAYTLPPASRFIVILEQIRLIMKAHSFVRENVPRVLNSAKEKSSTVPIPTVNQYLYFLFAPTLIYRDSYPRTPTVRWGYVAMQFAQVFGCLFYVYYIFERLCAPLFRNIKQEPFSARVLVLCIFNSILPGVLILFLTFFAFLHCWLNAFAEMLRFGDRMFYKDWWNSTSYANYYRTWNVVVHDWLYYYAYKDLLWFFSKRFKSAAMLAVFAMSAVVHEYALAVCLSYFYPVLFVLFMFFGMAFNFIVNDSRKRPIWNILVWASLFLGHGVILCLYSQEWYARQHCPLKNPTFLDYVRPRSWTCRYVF

In the case of `CC(C)c1cccc(C(C)C)c1NC(=O)CCCCCSc1nc2c(N(C)C)cccc2o1` [Example 28, 6-(4-N,N-dimethylaminobenzoxazol-2-ylthio)-N-(2,6-diisopropylphenyl)hexanamide], the melting point (as a rule, the temperature, or range, at which the solid turns liquid) fell in the range of 129 to 130 °C. In addition, the IC50 (in general, the concentration at which inhibition is half-maximal) with ACAT in HepG2 cells was determined as 0.42 µM. At ACAT in J774 cells, the IC50 turned out to be 0.47 µM and the “IC50 (HepG2)/IC50 (J774)” value is given as 0.9.

As for `CCCCCCCCCN(CC(C)(C)C)C(=O)N[C@H]1CCCC[C@@H]1OC(=O)CCNC(=O)C1OC(C)(C)OCC1(C)C` (stereo partly drawn) [Control 3, N-(2,2,5,5-tetramethyl-1,3-dioxan-4-ylcarbonyl)-β-alanine 2(S)-[N′-(2,2-dimethylpropyl)-N′-nonylureido]-1(S)-cyclohexyl ester, reference compound], half-maximal inhibition in data set [1] (IC50) was put at 0.056 µM. On ACAT in J774 cells, the IC50 was 0.32 µM and the “IC50 (HepG2)/IC50 (J774)” value was 4.3.

For the compound `CC(C)c1cccc(C(C)C)c1NC(=O)CCCCCSc1nc2ncccc2o1` [Example 1, 6-(oxazolo[4,5-b]pyridin-2-ylthio)-N-(2,6-diisopropylphenyl)hexanamide], the melting point was 94 to 95 °C. In the data set on ACAT in HepG2 cells, the IC50 worked out at 4.1 µM. Moreover, at ACAT in J774 cells, the IC50 was 1.3 µM and the “IC50 (HepG2)/IC50 (J774)” value was 3.2.

With `CC(C)c1cccc(C(C)C)c1NC(=O)CCCCCSc1nc2cnccc2[nH]1` [Example 6, 6-(imidazolo[4,5-c]pyridin-2-ylthio)-N-(2,6-diisopropylphenyl)hexanamide], the melting point was in the range of 96 to 98 °C. The IC50 with ACAT in HepG2 cells worked out at 10 µM. Besides, at ACAT in J774 cells, the IC50 came out at 10 µM and the “IC50 (HepG2)/IC50 (J774)” value worked out at 1.0.

As for `CCCCCCCN(CCCCCSc1nc(-c2ccccc2)c(-c2ccccc2)[nH]1)c1nc2ccccc2o1` [Control 4, reference compound], the IC50 is 0.75 µM with ACAT in HepG2 cells, 0.037 µM in data set [1], 0.026 µM in data set [2] and 0.12 µM at ACAT in J774 cells. The “IC50 (HepG2)/IC50 (J774)” value at ACAT in J774 cells was 6.3.
